What is called IC50 is the concentration needed to halve the response being measured. A high value points to a need for much substance. By Kd is commonly meant the equilibrium constant for the complex coming apart.

Results on 14 compounds are retold here after publication PMC7486280 (Journal of medicinal chemistry, 2020).

The target of data set [1] is T1, NTMT1 (Homo sapiens, UniProt Q9BV86).
T1 sequence (Q9BV86 1-223): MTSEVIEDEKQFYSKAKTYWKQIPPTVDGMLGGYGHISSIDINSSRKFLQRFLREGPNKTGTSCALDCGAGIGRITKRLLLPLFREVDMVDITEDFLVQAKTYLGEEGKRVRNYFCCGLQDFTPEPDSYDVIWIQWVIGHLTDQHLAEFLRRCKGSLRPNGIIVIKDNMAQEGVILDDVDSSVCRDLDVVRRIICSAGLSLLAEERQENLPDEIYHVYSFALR
Description: SAH hydrolase. Format: biochemical. To be noted: for fold loss in inhibition compared to 6 (BM30): IC50 ratio vs BM30; for inhibitory activity for NTMT1 (in words): up to 100 μM.

For another data set, the system named is HCT116 cells. Nature of the data set: Cell permeability evaluation by MALDI-MS. It is filed as cell-based. To be noted: 100 μM, listed as BM30.
Data set [2] deals with T1, NTMT1. Nature of the data set: Inhibition mechanism, SAHH-coupled fluorescence assay. It is filed as biochemical.
Another data set has as its target PRMT1 (Homo sapiens, UniProt Q99873). Description: SAH hydrolase-coupled fluorescence selectivity assay, PRMT1. Format: biochemical.
For data set [3], the system named is panel of 41 MTases (NTMT1/2, PKMTs, PRMTs, DNMTs). Description: Selectivity panel of 41 MTases. Format: biochemical.
The target of the next data set is T2, G9a (Homo sapiens, UniProt Q96KQ7).
T2 sequence (Q96KQ7 1-1210): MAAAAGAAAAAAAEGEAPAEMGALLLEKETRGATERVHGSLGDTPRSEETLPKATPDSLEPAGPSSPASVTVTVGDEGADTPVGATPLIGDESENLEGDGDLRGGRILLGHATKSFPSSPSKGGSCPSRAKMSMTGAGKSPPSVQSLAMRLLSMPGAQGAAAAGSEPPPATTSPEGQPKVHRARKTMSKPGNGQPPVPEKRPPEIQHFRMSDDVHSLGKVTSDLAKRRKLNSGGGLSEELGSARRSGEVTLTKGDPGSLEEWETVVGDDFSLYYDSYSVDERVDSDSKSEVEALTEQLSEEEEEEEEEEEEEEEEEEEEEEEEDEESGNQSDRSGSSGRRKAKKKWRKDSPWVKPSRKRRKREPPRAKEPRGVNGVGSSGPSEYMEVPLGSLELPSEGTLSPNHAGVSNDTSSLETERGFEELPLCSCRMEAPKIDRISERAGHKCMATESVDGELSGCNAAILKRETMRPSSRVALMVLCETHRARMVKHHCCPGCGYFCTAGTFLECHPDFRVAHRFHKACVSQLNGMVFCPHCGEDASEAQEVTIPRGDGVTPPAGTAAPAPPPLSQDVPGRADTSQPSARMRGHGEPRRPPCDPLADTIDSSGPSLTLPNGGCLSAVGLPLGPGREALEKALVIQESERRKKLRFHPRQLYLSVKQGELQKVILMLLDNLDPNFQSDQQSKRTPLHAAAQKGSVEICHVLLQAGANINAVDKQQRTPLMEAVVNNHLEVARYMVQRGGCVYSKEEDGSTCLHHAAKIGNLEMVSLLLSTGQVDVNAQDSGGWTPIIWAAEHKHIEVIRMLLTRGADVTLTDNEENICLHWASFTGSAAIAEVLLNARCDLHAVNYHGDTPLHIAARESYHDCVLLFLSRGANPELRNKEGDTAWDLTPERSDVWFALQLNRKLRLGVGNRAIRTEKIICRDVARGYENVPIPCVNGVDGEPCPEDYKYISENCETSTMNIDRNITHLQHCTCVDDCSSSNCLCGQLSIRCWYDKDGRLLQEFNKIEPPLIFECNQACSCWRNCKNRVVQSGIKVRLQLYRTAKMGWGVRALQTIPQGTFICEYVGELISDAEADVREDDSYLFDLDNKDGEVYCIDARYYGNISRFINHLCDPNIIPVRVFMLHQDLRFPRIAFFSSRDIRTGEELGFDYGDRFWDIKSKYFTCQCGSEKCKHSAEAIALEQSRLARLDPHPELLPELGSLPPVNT
Nature of the data set: SAH hydrolase-coupled fluorescence selectivity assay, G9a. Format: biochemical.

Data set [4] concerns the target T1, NTMT1. The following applies: read-out: Kd for NTMT1; peptide substrate; cited from earlier work.

Where a SMILES comes first, the peptide text is derived from it. [ ]: non-standard residue; d: D form. The star is where a group is joined. ξ: configuration not given here. ξαMeP = CC1(C(=O)O)CCCN1; PhAc = O=C(Cc1ccccc1)* Where only a bound is given, the exact number is not on record here.

PRMT1, sequence (Q99873 whole entry, species assumed): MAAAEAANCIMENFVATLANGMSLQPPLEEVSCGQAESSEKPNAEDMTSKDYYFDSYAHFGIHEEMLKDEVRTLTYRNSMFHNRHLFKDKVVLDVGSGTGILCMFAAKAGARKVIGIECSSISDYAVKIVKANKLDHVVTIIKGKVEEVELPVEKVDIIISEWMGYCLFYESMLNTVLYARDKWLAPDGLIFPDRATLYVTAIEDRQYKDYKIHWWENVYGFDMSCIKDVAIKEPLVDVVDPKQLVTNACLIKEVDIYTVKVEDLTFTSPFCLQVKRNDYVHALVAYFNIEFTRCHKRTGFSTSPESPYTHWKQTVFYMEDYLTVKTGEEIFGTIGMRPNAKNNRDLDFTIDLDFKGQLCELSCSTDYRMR

On to `N=C(N)NCCC[C@H](NC(=O)[C@H](CCCCN)NC(=O)[C@@H]1CCCN1C(=O)Cc1ccc(O)cc1)C(N)=O` [Compound 6], for which the “fold increased activity compared to 5” value at NTMT1 [1] (IC50 ratio vs compound 5) is “approximately 7 fold”. Also, the “cellular level / penetration by MS detection” value with HCT116 cells is “did not display any”. The “inhibition pattern with respect to peptide substrate RCC1-6 (SPKRIA)” value on NTMT1 [2] (varying RCC1-6, fixed SAM) is “competitive”. Besides, at NTMT1 [2] (varying SAM, fixed RCC1-6), the “inhibition pattern with respect to cofactor SAM” value was “noncompetitive”. Moreover, the half-maximal inhibitory concentration (IC50) at PRMT1 is above 100000 nM. For the same compound, the “inhibition of NTMT1 versus NTMT2 in the panel” value in data set [3] (100 μM) is “comparable inhibition against both NTMT1 and NTMT2”. Also, in data set [3] (100 μM, duplicates), the “inhibition against the remaining 39 MTases” value is “very marginal inhibition”. Also, in data set [3] (compared to PKMTs, PRMTs and DNMTs), the “selectivity for NTMT1/2 over other MTases of the panel” value is recorded as “over 100 fold”. With `N=C(N)NCCC[C@H](NC(=O)[C@H](CCCCN)NC(=O)[C@@H]1CCCN1C(=O)CCc1ccc(O)cc1)C(N)=O` [Compound 10], the “fold loss in inhibition compared to 6 (BM30)” value on NTMT1 [1] is 5 fold. As to `N=C(N)NCCC[C@H](NC(=O)[C@H](CCCCN)NC(=O)[C@@H]1CCCN1C(=O)CCc1ccc(N)cc1)C(N)=O` [Compound 11], the “fold loss in inhibition compared to parent compound 7” value on NTMT1 [1] (IC50 ratio vs compound 7) came to 3 fold. For `N=C(N)NCCC[C@H](NC(=O)[C@H](CCCCN)NC(=O)[C@@H]1CCCN1CCc1ccc(O)cc1)C(N)=O` [Compound 12], the “inhibitory activity for NTMT1 (in words)” value against NTMT1 [1] was “did not show any inhibitory activity”.

`CC1(C(=O)N[C@@H](CCCCN)C(=O)N[C@@H](CCCNC(=N)N)C(N)=O)CCCN1C(=O)Cc1ccccc1` (stereo partly drawn) [Compound 13] (PhAc-[ξαMeP]-Lys-Arg-NH2): the “inhibitory activity for NTMT1 (in words)” value at NTMT1 [1] is recorded as “completely lost the inhibitory activity”. Turning to `N=C(N)NCCC[C@H](NC(=O)[C@H](CCCCN)NC(=O)c1cccc(NC(=O)Cc2ccc(O)cc2)c1)C(N)=O` [Compound 14], the “inhibitory activity for NTMT1 (in words)” value on NTMT1 [1] is listed as “did not exhibit any inhibitory activity”.

In the case of `N=C(N)NCCC[C@H](NC(=O)[C@H](CCCCN)NC(=O)c1ccccc1NC(=O)Cc1ccc(O)cc1)C(N)=O` [Compound 15], the “inhibitory activity for NTMT1 (in words)” value against NTMT1 [1] is recorded as “did not exhibit any inhibitory activity”. Regarding `NCCCC[C@H](NC(=O)[C@H](CCCCN)NC(=O)[C@@H]1CCCN1C(=O)Cc1ccc(O)cc1)C(N)=O` [Compound 17], the “inhibitory activity for NTMT1 (in words)” value at NTMT1 [1] was “negligible difference in inhibition compared to BM30”. With `C[C@@H](O)[C@H](NC(=O)[C@H](CCCCN)NC(=O)[C@@H]1CCCN1C(=O)Cc1ccc(O)cc1)C(N)=O` [Compound 18], the “fold loss in inhibition compared to 6 (BM30)” value at NTMT1 [1] is recorded as 5 fold.

In the case of `C[C@H](NC(=O)[C@H](CCCCN)NC(=O)[C@@H]1CCCN1C(=O)Cc1ccc(O)cc1)C(N)=O` [Compound 19], the “fold loss in inhibition compared to 6 (BM30)” value on NTMT1 [1] is 5 fold.

As to `NCCCC[C@H](NC(=O)[C@@H]1CCCN1C(=O)Cc1ccc(O)cc1)C(=O)NCC(N)=O` [Compound 20], the “fold loss in inhibition compared to 6 (BM30)” value at NTMT1 [1] is around 14 fold.

On to `NCCCC[C@H](NC(=O)[C@@H]1CCCN1C(=O)Cc1ccc(O)cc1)C(N)=O` [Compound 21], for which the “fold loss in inhibition compared to 6 (BM30)” value on NTMT1 [1] amounted to 18 fold. As for `N=C(N)NCCC[C@@H](NC(=O)[C@H](CCCCN)NC(=O)[C@@H]1CCCN1C(=O)Cc1ccc(O)cc1)C(N)=O` [Compound 22], the “inhibition for G9a (in words)” value against G9a is reported as “exhibited inhibition”. Consider YPKRIA, for which, in the data set with NTMT1 [4], the dissociation constant Kd is 100 nM.
